Patent US8183405B2, “Obovatol derivatives or pharmaceutically acceptable salts thereof, preparation method thereof and pharmaceutical composition for the prevention and treatment of cancer containing the same as an active ingredient” (Korea Research Institute of Bioscience and Biotechnology, priority 2008, dated 2012)

Tests used:
[1] = Solubility (Table 1); format: physicochemical; conditions: for Solubility Insoluble: solvents in which the compound is insoluble; for Solubility Soluble: solvents in which the compound is soluble
[2] = Assay for acute oral toxicity in rat; conditions: SD, in vivo, 500 mg/kg, oral administration, rats
Protocol: Specific pathogen free (SPF) SD rats 6 weeks old were used for this assay. The obovatol derivative prepared in Example 1 or 2 was dissolved in distilled water, and the solution was orally administered at a dose of 500 mg/kg to respective groups of two rats.
Autopsies were performed to check for abnormalities of the thoracic and abdominal organs with the naked eye.

[3] = system: human cancer cell line; assay: Inhibitory effect on growth of cancer cell (WST-1); format: cell-based; conditions: for OD: 48 hours, WST-1, absorbance at 450 nm, control OD 0.604
Protocol: The compounds prepared in Examples 1, 2 and 3 were evaluated for inhibitory activity against the growth of a human cancer cell line using WST-1. Human cancer cell lines were incubated in 10% fetal bovine serum (FBS)-supplemented media at 37°C. in a 5% CO2 atmosphere, followed by detaching the cells with 0.05% trypsin-EDTA.
Cells were plated onto […] at a density of 4,000 cells (A549, MDA-MB-231), 5,000 cells (HEK293, NCI-H23) or 6,000 cells (HCA-7, HCT116, SW620, DU145) per well, which were counted using a hematocytometer.
After incubation in 10% FBS-supplemented media at 37°C. for 24 hours in a 5% CO2 incubator, the media was changed with fresh media containing a control (0.1% DMSO) or the compound of Example 1 in an amount of 5, 10, 15, 20, 25 or 30 μg/ml (dissolved in DMSO and diluted in the medium). After 48 hours of treatment, WST-1 (Roche) was added in an amount of 10 μl to each well and incubated for 2 hrs. Absorbance at 450 nm was read in an ELISA reader (Bio-Rad).

[4] = system: colorectal cancer cells (SW620); assay: Apoptotic effect on cancer cells (annexin V-FITC/PI FACS); format: cell-based, human; conditions: 50 μM, 48 hours, 14.12% at pre-treatment
Protocol: Apoptosis was analyzed using flow cytometry. First, colorectal cancer cells (SW620) were treated with 0.1% DMSO (negative control), 0 μM, 30 μM or 50 μM of the compound of Example 1 for 48 hours and detached with 0.05% trypsin-EDTA. After being harvested through centrifugation, the cells were washed twice with PBS (phosphate-buffered saline) and suspended at a density of 1×10^6 cells/ml in a 1× binding buffer (10 mM Hepes/NaOH, pH 7.4, 140 mM NaCl, and 2.5 mM CaCl2). 100 μl of the cell suspension was transferred into a 5 ml culture tube, mixed with 5 μl of annexin V-FITC and 10 μl of PI (propidium iodide), and incubated at room temperature for 15 min in a light-tight condition. Then, 400 μl of 1×binding buffer was added to each tube, followed by FACS analysis for annexin V-FITC-stained cells (Moussa Alkhalaf, Abdulla El-Mowafy, Waleed Renno, Ousama Rachid, Ahmed Ali, and Raja Al-Attyiah, Archives of Medical Research 39, 162-168, 2006).
In FACS plots of FIG. 1, the distribution of stained cells is shown. Cell migration to the second quadrant and the fourth quadrant refers to an increase in chromosome number, meaning an increased number of cells in the G2/M phase or S phase.
The third quadrant and the fourth quadrant of the FACS plot indicate cells expressing the early apoptosis marker annexin V.

| Solubility Insoluble [1] | Solubility Soluble [1] | SMILES | other results |
| --- | --- | --- | --- |
| Water | Alcohol, DMSO | CCCc1ccc(Oc2cc(CCC)cc(OC(C)=O)c2OC(C)=O)cc1 [Example 6, 1-(4-propylphenoxy)-2,3-diacetyloxy-5-propylbenzene] | – |
| Water | Alcohol, DMSO | CCCc1ccc(Oc2cc(CCC)cc(OC(=O)COC)c2OC(=O)COC)cc1 [Example 7, 1-(4-propylphenoxy)-2,3-di-2-methoxyacetyloxy-5-propylbenzene] | – |
| Hexane, Water | Alcohol, DMSO | CCCc1ccc(Oc2cc(CCC)cc(O)c2OC)cc1 [Example 5, 3-(4-propylphenoxy)-2-methoxy-5-propylphenol] | – |

The remaining lines, values behind:

| SMILES | Solubility Insoluble [1] | Solubility Soluble [1] | other results |
| --- | --- | --- | --- |
| C=CCc1ccc(Oc2cc(CC=C)cc(O)c2OC)cc1 [Example 2, 3-(4-allylphenoxy)-5-allyl-2-methoxyphenol] | Hexane, Water | Alcohol, DMSO | LD50 [2]: ≥ 500 mg/kg |
| C=CCc1ccc(Oc2cc(CC=C)cc(OC(=O)COC)c2OC(=O)COC)cc1 [Example 4, 1-(4-allylphenoxy)-5-allyl-2,3-di-2-methoxyacetyloxybenzene] | Hexane, Water | Alcohol, DMSO | – |
| C/C=C/c1ccc(Oc2cc(/C=C/C)cc(OC(=O)COC)c2OC(=O)COC)cc1 [Example 10, 1-(4-((E)-prop-1-enyl)phenoxy)-2,3-di-2-methoxyacetyloxy-5-((E)-prop-1-enyl)benzene] | Water | Alcohol, DMSO | – |
| C/C=C/c1ccc(Oc2cc(/C=C/C)cc(OC(C)=O)c2OC(C)=O)cc1 [Example 9, 1-(4-((E)-prop-1-enyl)phenoxy)-2,3-diacetyloxy-5-((E)-prop-1-enyl) benzene] | Water | Alcohol, DMSO | – |
| C=CCc1ccc(Oc2cc(CC=C)cc(OC(C)=O)c2OC(C)=O)cc1 [Example 3, 1-(4-allylphenoxy)-5-allyl-2,3-diacetyloxybenzene] | Hexane, Water | Alcohol, DMSO | – |
| CCCc1ccc(Oc2cc(CCC)cc(O)c2O)cc1 [Example 1, 3-(4-propylphenoxy)-5-propylbenzene-1,2-diol] | Water | Alcohol, DMSO | OD ([3]; 5 μg/ml): 0.592; OD ([3]; 10 μg/ml): 0.557; OD ([3]; 15 μg/ml): 0.474; OD ([3]; 20 μg/ml): 0.247; OD ([3]; 25 μg/ml): 0.149; OD ([3]; 30 μg/ml): 0.141; inhibit the growth of cancer cells ([3]; concentration of 20 μg/ml or higher): ≥ 50%; fraction of the cells migrating to the third quadrant (annexin V) [4]: 59.58%; LD50 [2]: ≥ 500 mg/kg |
| C/C=C/c1ccc(Oc2cc(/C=C/C)cc(O)c2O)cc1 [Example 8, 3-(4-((E)-prop-1-enyl)phenoxy)-5-((E)-prop-1-enyl)benzene-1,2-diol] | Water | Alcohol, DMSO | – |
